The values below come from PubChem BioAssay (NCI).

Common to all, as to experiment: NCI tumour cell line growth inhibition, 48 h
Experiment [1] relates to NCI-H23 lung.
Experiment [2] relates to U251 CNS.
Experiment [3] relates to MALME-3M melanoma.
The test system of experiment [4] is OVCAR-4 ovarian.
Experiment [5] relates to HOP-62 NSCLC.
The subject of experiment [6] is SK-MEL-5 melanoma.
The subject of experiment [7] is TK-10 renal.
Experiment [8] concerns SF-539 CNS.
The subject of experiment [9] is HT29 colon.

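Exposure lasted 48 hours, with cells grown in 96-well plates and compounds tested at five concentrations. GI50 = concentration required for 50% inhibition of growth. TGI: concentration producing complete growth inhibition.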 Some results are limits rather than exact numbers.

For the molecule `Cn1c(=O)nc2n(-c3cccc(Br)c3)c3ccccc3nc-2c1=O`, the TGI is 4.91 µM in experiment [1]; 19.2 µM in experiment [2]; 6.46 µM in [3]; 14.6 µM in experiment [4]; 28 µM in [5]; 3.41 µM in experiment [6]. In addition, the TGI amounted to 24.1 µM in experiment [7] and 18.2 µM in experiment [8].
Regarding `CC1(c2cccc3ccccc23)OC(=O)c2ccccc21` (configuration not stated), the TGI in [1] was 38.1 µM; in experiment [2], 45.7 µM; in experiment [9] it was 53.8 µM; in experiment [3], 53.4 µM; in experiment [4], > 100 µM; in experiment [5], 41.6 µM. Further, the TGI is 26.2 µM in [6], > 100 µM in [7] and 30.2 µM in experiment [8].
In the case of `CCCCCCCCCCCCCC(=O)CC(=O)c1c(O)cccc1O`, the TGI in [1] was 84.2 µM; in [2], > 100 µM; in [9], > 100 µM; in experiment [3] it was 92 µM; in experiment [4] it was > 100 µM; in [5], > 100 µM. Also, the TGI in [6], in experiment [7] and in experiment [8] was > 100 µM each time.
Take `O=c1nc2n(-c3ccc(Cl)cc3)c3ccc([N+](=O)[O-])cc3cc-2c(=O)[nH]1`: the GI50 in [1] was 17.7 µM; in experiment [2] it was 8.15 µM; in experiment [9], 20.2 µM; in [4], 71.5 µM; in experiment [5], 6.01 µM; in [6] it was 18.6 µM. The GI50 in experiment [7] is 25.7 µM; in [8] it was 22.5 µM. In addition, the TGI in experiment [1] is 34 µM; in experiment [2], 88.7 µM; in experiment [9] it was 43.1 µM; in experiment [4], > 100 µM; in experiment [5], 22.8 µM; in [6] it was 41.6 µM. The TGI in [7] was 62.7 µM; in experiment [8] it was 53.9 µM.
Turning to `Cc1ccccc1N=Nc1ccc(NC(=O)c2ccnn2C)c(C)c1`, the GI50 was 18.7 µM in experiment [1]; 24 µM in [2]; > 100 µM in [9]; 14.5 µM in [3]; 8.71 µM in [4]; 29.4 µM in experiment [5]. For the same molecule, the GI50 in experiment [6] is 4.99 µM; in experiment [7], 20.5 µM; in experiment [8], 36.5 µM. Also, the TGI in [1], in experiment [2], in [9], in [3], in experiment [4] and in experiment [5] was > 100 µM each time. The TGI in [6] was 72.2 µM; in [7], > 100 µM; in experiment [8], > 100 µM.
For the molecule `CCOc1ccccc1NC(=O)CC1SC(=Nc2ccc([N+](=O)[O-])cc2)NC1=O` (configuration not stated), the TGI came out at 35.2 µM in experiment [1]; 28 µM in [2]; 50.6 µM in experiment [9]; 51.1 µM in experiment [3]; 29.8 µM in [4]; 34.3 µM in experiment [5]. Besides, the TGI in [6] is 30 µM; in experiment [7], 70.2 µM.
As for `CCc1c(C#N)c(S[C@@H](C(N)=O)c2ccccc2)nc(N(C)C)c1C#N`, the GI50 is 21.1 µM in [1]; 11 µM in experiment [2]; > 100 µM in experiment [9]; 3.63 µM in experiment [5]; 21.9 µM in experiment [7]; 4.65 µM in experiment [8]. Besides, the TGI was > 100 µM in experiment [1]; 42.1 µM in [2]; > 100 µM in [9]; 17.7 µM in [5]; 80.4 µM in [7]; > 100 µM in experiment [8].
Turning to `Cc1ccc(/C=C2/SC(Nc3nc(-c4csc(NC5=NC(=O)/C(=C\c6ccc(C)cc6)S5)n4)cs3)=NC2=O)cc1`, the GI50 was 12 µM in experiment [1]; 3.43 µM in [2]; 21.1 µM in [9]; 1.94 µM in [5]; 0.0217 µM in experiment [6]; 8.49 µM in [7]. The GI50 in experiment [8] is 13.5 µM. Further, the TGI in experiment [1] was > 50 µM; in [2], > 50 µM; in experiment [9] it was > 50 µM; in experiment [5], 15.5 µM; in [6], 1.4 µM; in experiment [7], 26.6 µM. The TGI in experiment [8] was determined as 39.7 µM.
Turning to `Cc1ccc(-n2c3c(c4c(CN(C)C)c(O)ccc42)CCc2ccccc2C3=O)cc1`, the GI50 was 14.6 µM in experiment [1]; 15.6 µM in experiment [2]; > 100 µM in [9]; 17.8 µM in experiment [5]; 14.9 µM in experiment [6]; 18.9 µM in experiment [7]. For the same molecule, in experiment [8], the GI50 was 19.3 µM. For the same molecule, the TGI was 29.6 µM in experiment [1]; 30.5 µM in [2]; > 100 µM in experiment [9]; 40.9 µM in experiment [5]; 28.9 µM in [6]; 35.6 µM in [7]. Also, in [8], the TGI is 36 µM.
Consider `NC(N)=N/N=C\c1cccc(OCc2ccccc2)c1`, for which the GI50 is 11.7 µM in experiment [1]; 1.87 µM in [2]; 1.83 µM in experiment [9]; 3.35 µM in experiment [3]; 5.93 µM in [4]; 5.16 µM in experiment [5]. Moreover, the GI50 in [6] was 1.66 µM; in experiment [7], 12.6 µM; in experiment [8], 5.11 µM. Besides, the TGI in [1] was 27.6 µM; in experiment [2], 4.12 µM; in experiment [9], 4.01 µM; in experiment [3], 13.5 µM; in experiment [4], 27 µM; in [5], 19.1 µM. The TGI in experiment [6] stood at 3.12 µM; in experiment [7], 39.1 µM; in experiment [8], 20 µM.
`O=C1CCCCCCCC/C=C\CC(c2ccco2)O1` (configuration not stated): the GI50 was 35.8 µM in experiment [1]; 19.5 µM in experiment [2]; 27 µM in experiment [9]; 26.3 µM in [3]; 15.6 µM in experiment [5]; 18.9 µM in experiment [6]. For the same molecule, the GI50 in experiment [7] was > 100 µM; in [8] it was 56 µM. The TGI in experiment [1] was > 100 µM; in [2] it was 48.2 µM; in experiment [9], 99.5 µM; in experiment [3], > 100 µM; in [5], 62.3 µM; in experiment [6] it was 36.9 µM. In addition, the TGI in experiment [7] and in experiment [8] was > 100 µM in each case.
